# From patent US20260035359A1, “HERBICIDAL IMIDAZOLE COMPOUNDS” (SYNGENTA CROP PROTECTION AG, priority 2022, published 2026)
# Tests used:
# Assay type in all cases: in vivo
# [1] = tested on: Amaranthus pa/meri (AMAPA); test: Post-emergence herbicidal glasshouse test; conditions: 250 g/ha, sprayed after 8 days cultivation, evaluated after 13 days
# Method: (§1) Seeds of a variety of test species are sown in standard soil in pots Amaranthus pa/meri (AMAPA), Amaranthus retoflexus (AMARE), Echinochloa crus-gali (ECHCG), Ipomoea hederacea (IPOHE), Setaria faberi (SETFA). After cultivation for one day (pre-emergence) or after 8 days cultivation (post-emergence) under controlled conditions in a glasshouse (at 24/16° C., day/night; 14 hours light; 65% humidity), the plants are sprayed with an aqueous spray solution derived from the formulation of the technical active ingredient in acetone/water (50:50) solution containing 0.5% Tween 20 (polyoxyethelyene sorbitan monolaurate, CAS RN 9005-64-5). Compounds are applied at 250 g/ha unless otherwise stated. The test plants are then grown in a glasshouse under controlled conditions in a glasshouse (at 24/16° C., day/night; 14 hours light; 65% humidity) and watered twice daily. After 13 days for pre and post-emergence, the test is evaluated for the percentage damage caused to the plant. The biological activities are shown in the following table on a five-point scale (5=81-100%; 4=61-80%; 3=41-60%; 2=21-40%; 1=0-20%).
# [2] = tested on: Amaranthus retoflexus (AMARE); test: Post-emergence herbicidal glasshouse test; conditions: 250 g/ha, sprayed after 8 days cultivation, evaluated after 13 days
# Method: as §1
# [3] = tested on: Echinochloa crus-gali (ECHCG); test: Post-emergence herbicidal glasshouse test; conditions: 250 g/ha, sprayed after 8 days cultivation, evaluated after 13 days
# Method: as §1
# [4] = tested on: Ipomoea hederacea (IPOHE); test: Post-emergence herbicidal glasshouse test; conditions: 250 g/ha, sprayed after 8 days cultivation, evaluated after 13 days
# Method: as §1
# [5] = tested on: Amaranthus pa/meri (AMAPA); test: Pre-emergence herbicidal glasshouse test; conditions: 250 g/ha, sprayed after one day cultivation, evaluated after 13 days
# Method: as §1
# [6] = tested on: Amaranthus retoflexus (AMARE); test: Pre-emergence herbicidal glasshouse test; conditions: 250 g/ha, sprayed after one day cultivation, evaluated after 13 days
# Method: as §1
# [7] = tested on: Echinochloa crus-gali (ECHCG); test: Pre-emergence herbicidal glasshouse test; conditions: 250 g/ha, sprayed after one day cultivation, evaluated after 13 days
# Method: as §1
# [8] = tested on: Ipomoea hederacea (IPOHE); test: Pre-emergence herbicidal glasshouse test; conditions: 250 g/ha, sprayed after one day cultivation, evaluated after 13 days
# Method: as §1
smiles,measurement,setting,value
CCCCc1nc(I)c(I)n1Cc1ncc(Cl)cn1 [Compound 1.078],"percentage damage caused to the plant, AMAPA",[1],2 (2=21-40%)
same,"percentage damage caused to the plant, AMARE",[2],2 (2=21-40%)
same,"percentage damage caused to the plant, ECHCG",[3],1 (1=0-20%)
same,"percentage damage caused to the plant, IPOHE",[4],1 (1=0-20%)
same,"percentage damage caused to the plant, AMAPA",[5],1 (1=0-20%)
same,"percentage damage caused to the plant, AMARE",[6],1 (1=0-20%)
same,"percentage damage caused to the plant, ECHCG",[7],1 (1=0-20%)
same,"percentage damage caused to the plant, IPOHE",[8],1 (1=0-20%)
O=S(=O)(CCC(F)(F)F)c1nc(C(F)F)cn1Cc1ncc(Cl)cn1 [Compound 1.009],"percentage damage caused to the plant, AMAPA",[1],1 (1=0-20%)
same,"percentage damage caused to the plant, AMARE",[2],1 (1=0-20%)
same,"percentage damage caused to the plant, ECHCG",[3],1 (1=0-20%)
same,"percentage damage caused to the plant, IPOHE",[4],1 (1=0-20%)
same,"percentage damage caused to the plant, AMAPA",[5],1 (1=0-20%)
same,"percentage damage caused to the plant, AMARE",[6],1 (1=0-20%)
same,"percentage damage caused to the plant, ECHCG",[7],1 (1=0-20%)
same,"percentage damage caused to the plant, IPOHE",[8],2 (2=21-40%)
"ON=CCCc1nc(C(F)(F)F)cn1Cc1ncc(Cl)cn1 (single isomer, unassigned) [Compound 1.005]","percentage damage caused to the plant, AMAPA",[1],3 (3=41-60%)
same,"percentage damage caused to the plant, AMARE",[2],3 (3=41-60%)
same,"percentage damage caused to the plant, ECHCG",[3],1 (1=0-20%)
same,"percentage damage caused to the plant, IPOHE",[4],2 (2=21-40%)
same,"percentage damage caused to the plant, AMAPA",[5],1 (1=0-20%)
same,"percentage damage caused to the plant, AMARE",[6],1 (1=0-20%)
same,"percentage damage caused to the plant, ECHCG",[7],1 (1=0-20%)
same,"percentage damage caused to the plant, IPOHE",[8],1 (1=0-20%)
CCCCc1nc(I)cn1Cc1ncc(Cl)cn1 [Compound 1.079],"percentage damage caused to the plant, AMAPA",[1],1 (1=0-20%)
same,"percentage damage caused to the plant, AMARE",[2],1 (1=0-20%)
same,"percentage damage caused to the plant, ECHCG",[3],1 (1=0-20%)
same,"percentage damage caused to the plant, IPOHE",[4],1 (1=0-20%)
same,"percentage damage caused to the plant, AMAPA",[5],1 (1=0-20%)
same,"percentage damage caused to the plant, AMARE",[6],1 (1=0-20%)
same,"percentage damage caused to the plant, ECHCG",[7],1 (1=0-20%)
N#CCCc1nc(C(F)(F)F)cn1Cc1ncc(Cl)cn1 [Compound 1.029],"percentage damage caused to the plant, AMAPA",[1],4 (4=61-80%)
same,"percentage damage caused to the plant, AMARE",[2],4 (4=61-80%)
same,"percentage damage caused to the plant, ECHCG",[3],1 (1=0-20%)
same,"percentage damage caused to the plant, IPOHE",[4],3 (3=41-60%)
same,"percentage damage caused to the plant, AMAPA",[5],5 (5=81-100%)
same,"percentage damage caused to the plant, AMARE",[6],5 (5=81-100%)
same,"percentage damage caused to the plant, ECHCG",[7],2 (2=21-40%)
same,"percentage damage caused to the plant, IPOHE",[8],5 (5=81-100%)
"FC(F)(F)c1cn(Cc2ncc(Cl)cn2)c(CCCCl)n1 [Compound 1.051, 5-chloro-2-[[2-(3-chloropropyl)-4-(trifluoromethyl)imidazol-1-yl]methyl]pyrimidine]","percentage damage caused to the plant, AMAPA",[1],4 (4=61-80%)
same,"percentage damage caused to the plant, AMARE",[2],5 (5=81-100%)
same,"percentage damage caused to the plant, ECHCG",[3],4 (4=61-80%)
same,"percentage damage caused to the plant, IPOHE",[4],4 (4=61-80%)
same,"percentage damage caused to the plant, AMAPA",[5],5 (5=81-100%)
same,"percentage damage caused to the plant, AMARE",[6],5 (5=81-100%)
same,"percentage damage caused to the plant, ECHCG",[7],2 (2=21-40%)
same,"percentage damage caused to the plant, IPOHE",[8],5 (5=81-100%)
FC(F)c1cn(Cc2ncc(Cl)cn2)c(SCCC(F)(F)F)n1 [Compound 1.012],"percentage damage caused to the plant, AMAPA",[1],1 (1=0-20%)
same,"percentage damage caused to the plant, AMARE",[2],1 (1=0-20%)
same,"percentage damage caused to the plant, ECHCG",[3],1 (1=0-20%)
same,"percentage damage caused to the plant, IPOHE",[4],2 (2=21-40%)
same,"percentage damage caused to the plant, AMAPA",[5],1 (1=0-20%)
same,"percentage damage caused to the plant, AMARE",[6],1 (1=0-20%)
same,"percentage damage caused to the plant, ECHCG",[7],1 (1=0-20%)
same,"percentage damage caused to the plant, IPOHE",[8],1 (1=0-20%)
"CCCCc1nc(C(F)(F)F)cn1Cc1ncc(F)cn1 [Compound 1.077, 2-[[2-butyl-4-(trifluoromethyl)imidazol-1-yl]methyl]-5-fluoro-pyrimidine]","percentage damage caused to the plant, AMAPA",[1],2 (2=21-40%)
same,"percentage damage caused to the plant, AMARE",[2],3 (3=41-60%)
same,"percentage damage caused to the plant, ECHCG",[3],1 (1=0-20%)
same,"percentage damage caused to the plant, IPOHE",[4],3 (3=41-60%)
same,"percentage damage caused to the plant, AMAPA",[5],5 (5=81-100%)
same,"percentage damage caused to the plant, AMARE",[6],5 (5=81-100%)
same,"percentage damage caused to the plant, ECHCG",[7],1 (1=0-20%)
same,"percentage damage caused to the plant, IPOHE",[8],5 (5=81-100%)
"O=CCCc1nc(C(F)(F)F)cn1Cc1ncc(Cl)cn1 [Compound 1.013, 3-[1-[(5-chloropyrimidin-2-yl)methyl]-4-(trifluoromethyl)imidazol-2-yl]propanal]","percentage damage caused to the plant, AMAPA",[1],1 (1=0-20%)
same,"percentage damage caused to the plant, AMARE",[2],1 (1=0-20%)
same,"percentage damage caused to the plant, ECHCG",[3],1 (1=0-20%)
same,"percentage damage caused to the plant, IPOHE",[4],1 (1=0-20%)
same,"percentage damage caused to the plant, AMAPA",[5],2 (2=21-40%)
same,"percentage damage caused to the plant, AMARE",[6],5 (5=81-100%)
same,"percentage damage caused to the plant, ECHCG",[7],1 (1=0-20%)
same,"percentage damage caused to the plant, IPOHE",[8],1 (1=0-20%)
CCCCc1nc(C(F)(F)F)cn1Cc1ccc(C#N)cn1 [Compound 1.056],"percentage damage caused to the plant, AMAPA",[1],2 (2=21-40%)
same,"percentage damage caused to the plant, AMARE",[2],2 (2=21-40%)
same,"percentage damage caused to the plant, ECHCG",[3],1 (1=0-20%)
same,"percentage damage caused to the plant, IPOHE",[4],2 (2=21-40%)
same,"percentage damage caused to the plant, AMAPA",[5],4 (4=61-80%)
same,"percentage damage caused to the plant, AMARE",[6],4 (4=61-80%)
same,"percentage damage caused to the plant, ECHCG",[7],1 (1=0-20%)
same,"percentage damage caused to the plant, IPOHE",[8],2 (2=21-40%)
CCCc1nc(C(F)(F)F)cn1Cc1ncc(Cl)cn1 [Compound 1.042],"percentage damage caused to the plant, AMAPA",[1],3 (3=41-60%)
same,"percentage damage caused to the plant, AMARE",[2],3 (3=41-60%)
same,"percentage damage caused to the plant, ECHCG",[3],1 (1=0-20%)
same,"percentage damage caused to the plant, IPOHE",[4],3 (3=41-60%)
same,"percentage damage caused to the plant, AMAPA",[5],4 (4=61-80%)
same,"percentage damage caused to the plant, AMARE",[6],4 (4=61-80%)
same,"percentage damage caused to the plant, ECHCG",[7],1 (1=0-20%)
same,"percentage damage caused to the plant, IPOHE",[8],4 (4=61-80%)
CCCCc1nc(C(F)(F)F)cn1Cc1ncc(Cl)cc1F [Compound 1.058],"percentage damage caused to the plant, AMAPA",[1],3 (3=41-60%)
same,"percentage damage caused to the plant, AMARE",[2],4 (4=61-80%)
same,"percentage damage caused to the plant, ECHCG",[3],4 (4=61-80%)
same,"percentage damage caused to the plant, IPOHE",[4],4 (4=61-80%)
same,"percentage damage caused to the plant, AMAPA",[5],5 (5=81-100%)
same,"percentage damage caused to the plant, AMARE",[6],5 (5=81-100%)
same,"percentage damage caused to the plant, ECHCG",[7],5 (5=81-100%)
same,"percentage damage caused to the plant, IPOHE",[8],5 (5=81-100%)
CCCCc1nc(C(F)(F)F)cn1Cc1ccc(Cl)cn1 [Compound 1.057],"percentage damage caused to the plant, AMAPA",[1],2 (2=21-40%)
same,"percentage damage caused to the plant, AMARE",[2],3 (3=41-60%)
same,"percentage damage caused to the plant, ECHCG",[3],1 (1=0-20%)
same,"percentage damage caused to the plant, IPOHE",[4],2 (2=21-40%)
same,"percentage damage caused to the plant, AMAPA",[5],5 (5=81-100%)
same,"percentage damage caused to the plant, AMARE",[6],3 (3=41-60%)
same,"percentage damage caused to the plant, ECHCG",[7],1 (1=0-20%)
same,"percentage damage caused to the plant, IPOHE",[8],1 (1=0-20%)
FC(F)COCCc1nc(C(F)(F)F)cn1Cc1ncc(Cl)cn1 [Compound 1.017],"percentage damage caused to the plant, AMAPA",[1],4 (4=61-80%)
same,"percentage damage caused to the plant, AMARE",[2],4 (4=61-80%)
same,"percentage damage caused to the plant, ECHCG",[3],3 (3=41-60%)
same,"percentage damage caused to the plant, IPOHE",[4],4 (4=61-80%)
same,"percentage damage caused to the plant, AMAPA",[5],5 (5=81-100%)
same,"percentage damage caused to the plant, AMARE",[6],5 (5=81-100%)
same,"percentage damage caused to the plant, ECHCG",[7],5 (5=81-100%)
same,"percentage damage caused to the plant, IPOHE",[8],5 (5=81-100%)
